This is an account of results in PubChem BioAssay (NCI).

Among the test systems are ACHN renal; HOP-92 NSCLC; IGROV1 ovarian; LOX IMVI melanoma; NCI-H226 lung; OVCAR-4 ovarian; SN12C renal; T-47D breast; U251 CNS; UO-31 renal.
Test in all cases: NCI tumour cell line growth inhibition, 48 h

SMILES strings stand for the structures.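 96-well plates; 48 h exposure; 5 concentrations. Endpoints by linear interpolation between flanking doses. Not reached: highest tested concentration assigned. GI50: concentration for 50% inhibition of growth. TGI: concentration producing complete growth inhibition.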

Regarding `COc1ccc(-n2cc(-c3cc(OC)c(OC)c(OC)c3)[nH]c2=O)cc1Cl`, the GI50 in the assay on ACHN renal is over 100 µM; with HOP-92 NSCLC it was 15 µM; with IGROV1 ovarian it was over 100 µM; in the assay with LOX IMVI melanoma it was over 100 µM; in the assay with NCI-H226 lung it was over 100 µM; in the assay with OVCAR-4 ovarian, over 100 µM. The GI50 is over 100 µM in the assay on SN12C renal, over 100 µM in the assay with T-47D breast, 37.7 µM with U251 CNS and over 100 µM in the assay on UO-31 renal. In addition, the TGI in the assay with ACHN renal, in the assay on HOP-92 NSCLC, in the assay on IGROV1 ovarian, in the assay with LOX IMVI melanoma, in the assay on NCI-H226 lung and with OVCAR-4 ovarian was over 100 µM in each case. Besides, the TGI in the assay on SN12C renal, with T-47D breast, in the assay on U251 CNS and in the assay on UO-31 renal was over 100 µM each time.
Regarding `CCCCN1CSC(=S)N(Cc2ccccc2)C1`, the TGI in the assay on ACHN renal, in the assay with HOP-92 NSCLC, in the assay on IGROV1 ovarian, in the assay on LOX IMVI melanoma, in the assay on NCI-H226 lung and in the assay with OVCAR-4 ovarian was over 100 µM throughout. Also, the TGI in the assay with SN12C renal, in the assay on T-47D breast, in the assay on U251 CNS and with UO-31 renal was over 100 µM each time.
With `COc1ccc(C2SCC(=O)N2NC(=O)Nc2c(C)nc3ccccn23)cc1` (stereo not given), the GI50 in the assay with ACHN renal is 21.9 µM; with HOP-92 NSCLC it was 16.6 µM; with IGROV1 ovarian, 38.6 µM; in the assay with LOX IMVI melanoma, 27.1 µM; in the assay on NCI-H226 lung, 42.8 µM; in the assay on OVCAR-4 ovarian it was over 100 µM. Moreover, the GI50 is 54.4 µM in the assay on SN12C renal, 26.4 µM with T-47D breast, 13.8 µM in the assay with U251 CNS and 32.7 µM in the assay on UO-31 renal. For the same compound, the TGI is 47.3 µM in the assay on ACHN renal; 37.5 µM in the assay with HOP-92 NSCLC; over 100 µM in the assay with IGROV1 ovarian; over 100 µM with LOX IMVI melanoma; over 100 µM in the assay on NCI-H226 lung; over 100 µM with OVCAR-4 ovarian. The TGI is over 100 µM in the assay on SN12C renal, 74.9 µM with T-47D breast, 27.9 µM with U251 CNS and over 100 µM in the assay with UO-31 renal.
As to `COC(=O)[C@H](Cc1c[nH]c2ccccc12)NC(=O)[C@@H](OC)[C@@H]1Cc2cc3cc(OC4CC(OC5CC(O)C(O)C(C)O5)C(O)C(C)O4)c(C)c(O)c3c(O)c2C(=O)[C@H]1OC1CC(OC2CC(OC3CC(C)(O)C(O)C(C)O3)C(O)C(C)O2)C(O)C(C)O1` (stereo not given in full), the GI50 in the assay on ACHN renal was 0.0475 µM; in the assay with HOP-92 NSCLC, 0.0039 µM; with IGROV1 ovarian, 0.00743 µM; with LOX IMVI melanoma it was 0.00391 µM; with NCI-H226 lung, 0.0065 µM; in the assay with OVCAR-4 ovarian, 0.0125 µM. Besides, the GI50 in the assay on SN12C renal is 0.00624 µM; with T-47D breast, 0.0075 µM; in the assay on U251 CNS, 0.00642 µM; in the assay with UO-31 renal it was 0.215 µM. Besides, the TGI in the assay on ACHN renal was 0.907 µM; in the assay with HOP-92 NSCLC it was 0.0333 µM; with IGROV1 ovarian, over 7.79 µM; with LOX IMVI melanoma, 0.0111 µM; in the assay with NCI-H226 lung, 0.145 µM; with OVCAR-4 ovarian, over 16.5 µM. The TGI was 7.42 µM in the assay with SN12C renal, over 9.76 µM in the assay with T-47D breast, over 16.5 µM in the assay on U251 CNS and 1.18 µM in the assay with UO-31 renal.
As to `O=C1/C(=C/c2ccc(O)cc2)CSc2ccc(Cl)cc21`, the GI50 with ACHN renal is 11.9 µM; in the assay with HOP-92 NSCLC, 21.7 µM; with IGROV1 ovarian, 7.58 µM; in the assay on LOX IMVI melanoma, 2.63 µM; with NCI-H226 lung, 22.1 µM; in the assay with OVCAR-4 ovarian it was 21.7 µM. For the same compound, the GI50 is 14 µM with SN12C renal, 8.86 µM with T-47D breast, 4.21 µM in the assay on U251 CNS and 12.4 µM in the assay on UO-31 renal. The TGI is 24.3 µM in the assay with ACHN renal; over 100 µM with HOP-92 NSCLC; 51 µM with IGROV1 ovarian; 8.75 µM in the assay with LOX IMVI melanoma; 51.2 µM in the assay with NCI-H226 lung; over 100 µM with OVCAR-4 ovarian. Further, the TGI was 46.9 µM with SN12C renal, 22.7 µM with T-47D breast, 15.8 µM with U251 CNS and 29.1 µM in the assay with UO-31 renal.
As to `CSc1nc2cc(S(=O)(=O)N3CCCCC3)ccc2s1`, the TGI in the assay on ACHN renal, in the assay with HOP-92 NSCLC, with IGROV1 ovarian, in the assay on LOX IMVI melanoma, in the assay with NCI-H226 lung and in the assay on OVCAR-4 ovarian was over 100 µM each time. The TGI with SN12C renal, with T-47D breast, in the assay on U251 CNS and with UO-31 renal was over 100 µM each time.
For `Clc1ccc(-c2c(C3=NCCCN3)nnn2-c2ccc(Cl)cc2)cc1`, the TGI is over 100 µM in the assay with ACHN renal; 64.5 µM in the assay on HOP-92 NSCLC; over 100 µM with IGROV1 ovarian; 53 µM with LOX IMVI melanoma; over 100 µM in the assay with NCI-H226 lung; over 100 µM in the assay on OVCAR-4 ovarian. The TGI was over 100 µM with SN12C renal, over 59.8 µM in the assay on T-47D breast, over 75.8 µM with U251 CNS and 90.4 µM in the assay with UO-31 renal.
On to `COc1cc2c3c(n(CCCCOC(=O)C(Cl)(Cl)Cl)c(=O)c2cc1OC)-c1cc2c(cc1C3=O)OCO2`, for which the GI50 in the assay with ACHN renal was 14.2 µM; with HOP-92 NSCLC, over 100 µM; with IGROV1 ovarian, 14.4 µM; in the assay with LOX IMVI melanoma, 35.9 µM; in the assay with NCI-H226 lung it was 67.6 µM; with OVCAR-4 ovarian, over 100 µM. The GI50 in the assay on SN12C renal is 43.7 µM; in the assay with T-47D breast it was over 100 µM; in the assay on U251 CNS it was 21.5 µM; in the assay on UO-31 renal, 14.1 µM. Further, the TGI in the assay with ACHN renal is 59.5 µM; in the assay with HOP-92 NSCLC, over 100 µM; in the assay on IGROV1 ovarian, over 100 µM; in the assay on LOX IMVI melanoma, over 100 µM; with NCI-H226 lung, over 100 µM; in the assay with OVCAR-4 ovarian, over 100 µM. Further, the TGI in the assay on SN12C renal, with T-47D breast, in the assay on U251 CNS and with UO-31 renal was over 100 µM each time.
